Key:
PRMT1 [1] = system: PRMT1; parameters: method as in earlier work; settings: binary binding to PRMT1; ref 2 (supplement; Feng et al. 2011); cited from earlier work
PRMT1 [2] = settings: PRMT1 catalysis, cited from earlier work
PRMT1 [3] = target: PRMT1 (Homo sapiens, UniProt Q99873); assay: Stopped flow fluorescence assay of PRMT1 inhibition ([PRMT1] 0.2 µM, [SAM] 3.5 µM, [H4FL] 0.4 µM); format: biochemical;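 further: Stopped-flow traces of fluorescent H4FL peptide quenched on binding PRMT1 and restored on release, recorded 900 s, averaged over repeated drives and fit to a double-exponential model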
PRMT1 (Homo sapiens, UniProt Q99873), sequence (Q99873 29-371): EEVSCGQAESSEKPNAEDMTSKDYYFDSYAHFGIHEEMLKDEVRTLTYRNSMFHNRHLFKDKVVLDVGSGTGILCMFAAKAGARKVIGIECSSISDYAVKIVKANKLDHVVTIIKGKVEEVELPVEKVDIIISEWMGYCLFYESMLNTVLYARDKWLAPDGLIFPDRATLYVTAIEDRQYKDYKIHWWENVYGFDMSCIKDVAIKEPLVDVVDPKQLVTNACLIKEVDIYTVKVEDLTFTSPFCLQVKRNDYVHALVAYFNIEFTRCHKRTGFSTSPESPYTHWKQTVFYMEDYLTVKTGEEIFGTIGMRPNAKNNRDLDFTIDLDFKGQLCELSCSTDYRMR
From the text: To obtain the IC50 of a specific inhibitor, the relative activities of the enzyme in presence of different concentrations of the inhibitor are required (equation 1).[37] […] By adding different concentrations of the inhibitor to the reaction mixture, the relative activity of the enzyme can be obtained by normalizing K to the reaction rate without the inhibitor, and then calculate the IC50 value using equation 1. In our stopped flow fluorescence assay, the reaction rate of Phase I and Phase II can be obtained by approximating and deriving the double-exponential equation (equation 2). In Phase I, during a very short period of time (where t is small), the curve is nearly linear, and the exponential equation can be approximately described as F1 = a · (−k1) · t. Therefore, the derivation of F1 equals –k1∙a, which is the slope of Phase I. Similarly, the curve of Phase II at early stage can be approximately described as F2 = b · (−k2) · t. This derivation of F2 equals –k2∙b, which is the slope of Phase II. The slopes at various inhibitor concentrations, normalized to the slope in the absence of inhibitor, can be used to obtain the corresponding relative enzyme activity from which the potency value (IC50) of the inhibitor can be calculated with equation 1.
In a stopped flow fluorescence assay, the binding of H4FL to PRMT1 (or the PRMT1—cofactor complex) quenches the peptide fluorescence, while release of the peptide restores the fluorescence. […] The widths of the entrance and exit slits of the monochromator were set to 0.5 mm. An equal volume of samples from two syringes was driven into the observation cell for mixing measurements. The H4FL concentration in all experiments was 0.4 μM. […] The fluorescent signal was recorded for 900 seconds, with 10,000 data points in total. Data from four to six drives were collected and averaged for each curve.
After averaging the shot data, the association time courses were fitted to a double-exponential function (equation 2) using GraphPad Prism (CA, USA). […] F is the fluorescence intensity at time t, k1, and k2 are the rate constants for Phase I and Phase II, a is the amplitude of the fluorescence change for k1, and b is the amplitude of the fluorescence change for k2. Simulation curves based on the values of a, b, k1, and k2 at fixed c = 1 were produced using Matlab. The IC50 value of inhibitors is determined by equation 1 using GraphPad Prism (CA, USA).

In the case of “acetyl -SGRme2aGKGGKGK(FL)GKGGAKRHRK [H4FLme2]”, the koff (PRMT1 [1]) is given as 319 s⁻¹ and the kon (PRMT1 [1]) is given as 2.6e+07 M⁻¹ s⁻¹.

In the case of acetyl-SGRGKGGKGK(FL)GKGGAKRHRK [H4FL], the koff (PRMT1 [1]) is listed as 333 s⁻¹, the kon (PRMT1 [1]) is listed as 4e+07 M⁻¹ s⁻¹ and the kcat (PRMT1 [2]) is listed as 0.00717 ± 0.00017 s⁻¹. The Km (PRMT1 [2]; read-out: Km of peptide substrate) was 0.5 ± 0.05 µM.

With “acetyl-SGRme2aGKGGKGLGKGGAKRHRKVL [H4R3me2a]” the “-b·k2 (slope of Phase II)” value (PRMT1 [3]; [H4R3Me2a] 0.025 µM) was 0.000708 ± 1.5e-06 s⁻¹, the “a (amplitude, Phase I)” value (PRMT1 [3]; [H4R3Me2a] 0.025 µM) was 0.1544 ± 3.91E-04 and the “a·k1 (slope of Phase I)” value (PRMT1 [3]; [H4R3Me2a] 0.025 µM) was 0.0108 ± 5.74e-05 s⁻¹. The “b (amplitude, Phase II)” value (PRMT1 [3]; [H4R3Me2a] 0.025 µM) was -0.1795 ± 1.47E-04, the “k1 (rate constant, Phase I)” value (PRMT1 [3]; [H4R3Me2a] 0.025 µM) was 0.06982 ± 3.27E-04 s^-1 and the “k2 (rate constant, Phase II)” value (PRMT1 [3]; [H4R3Me2a] 0.025 µM) was 0.003946 ± 7.72E-06 s^-1. The “-b·k2 (slope of Phase II)” value (PRMT1 [3]; [H4R3Me2a] 0.05 µM) was 0.00064 ± 1.51e-06 s⁻¹, the “a (amplitude, Phase I)” value (PRMT1 [3]; [H4R3Me2a] 0.05 µM) was 0.1589 ± 4.16E-04 and the “a·k1 (slope of Phase I)” value (PRMT1 [3]; [H4R3Me2a] 0.05 µM) was 0.0106 ± 5.8e-05 s⁻¹. The “b (amplitude, Phase II)” value (PRMT1 [3]; [H4R3Me2a] 0.05 µM) was -0.1863 ± 1.43E-04, the “k1 (rate constant, Phase I)” value (PRMT1 [3]; [H4R3Me2a] 0.05 µM) was 0.06665 ± 3.21E-04 s^-1 and the “k2 (rate constant, Phase II)” value (PRMT1 [3]; [H4R3Me2a] 0.05 µM) was 0.003437 ± 7.65E-06 s^-1. The “-b·k2 (slope of Phase II)” value (PRMT1 [3]; [H4R3Me2a] 0.1 µM) was 0.000608 ± 1.59e-06 s⁻¹, the “a (amplitude, Phase I)” value (PRMT1 [3]; [H4R3Me2a] 0.1 µM) was 0.1731 ± 3.91E-04 and the “a·k1 (slope of Phase I)” value (PRMT1 [3]; [H4R3Me2a] 0.1 µM) was 0.00927 ± 4.52e-05 s⁻¹. For the same substance, the “b (amplitude, Phase II)” value (PRMT1 [3]; [H4R3Me2a] 0.1 µM) was -0.1960 ± 1.50E-04, the “k1 (rate constant, Phase I)” value (PRMT1 [3]; [H4R3Me2a] 0.1 µM) was 0.05356 ± 2.31E-04 s^-1 and the “k2 (rate constant, Phase II)” value (PRMT1 [3]; [H4R3Me2a] 0.1 µM) was 0.003104 ± 7.73E-06 s^-1. For the same substance, the “-b·k2 (slope of Phase II)” value (PRMT1 [3]; [H4R3Me2a] 0.25 µM) was 0.000613 ± 1.75e-06 s⁻¹, the “a (amplitude, Phase I)” value (PRMT1 [3]; [H4R3Me2a] 0.25 µM) was 0.1692 ± 4.25E-04 and the “a·k1 (slope of Phase I)” value (PRMT1 [3]; [H4R3Me2a] 0.25 µM) was 0.00914 ± 4.96e-05 s⁻¹. The “b (amplitude, Phase II)” value (PRMT1 [3]; [H4R3Me2a] 0.25 µM) was -0.1883 ± 1.69E-04, the “k1 (rate constant, Phase I)” value (PRMT1 [3]; [H4R3Me2a] 0.25 µM) was 0.054 ± 2.60E-04 s^-1 and the “k2 (rate constant, Phase II)” value (PRMT1 [3]; [H4R3Me2a] 0.25 µM) was 0.003253 ± 8.83E-06 s^-1. The “-b·k2 (slope of Phase II)” value (PRMT1 [3]; [H4R3Me2a] 0.5 µM) was 0.000482 ± 2.06e-06 s⁻¹, the “a (amplitude, Phase I)” value (PRMT1 [3]; [H4R3Me2a] 0.5 µM) was 0.1282 ± 4.32E-04 and the “a·k1 (slope of Phase I)” value (PRMT1 [3]; [H4R3Me2a] 0.5 µM) was 0.00584 ± 4.38e-05 s⁻¹. For the same substance, the “b (amplitude, Phase II)” value (PRMT1 [3]; [H4R3Me2a] 0.5 µM) was -0.1431 ± 2.10E-04, the “k1 (rate constant, Phase I)” value (PRMT1 [3]; [H4R3Me2a] 0.5 µM) was 0.04557 ± 3.06E-04 s^-1 and the “k2 (rate constant, Phase II)” value (PRMT1 [3]; [H4R3Me2a] 0.5 µM) was 0.00337 ± 1.35E-05 s^-1. The “-b·k2 (slope of Phase II)” value (PRMT1 [3]; [H4R3Me2a] 1 µM) was 0.000195 ± 1.96e-06 s⁻¹, the “a (amplitude, Phase I)” value (PRMT1 [3]; [H4R3Me2a] 1 µM) was 0.1156 ± 3.30E-04 and the “a·k1 (slope of Phase I)” value (PRMT1 [3]; [H4R3Me2a] 1 µM) was 0.0041 ± 2.6e-05 s⁻¹. For the same substance, the “b (amplitude, Phase II)” value (PRMT1 [3]; [H4R3Me2a] 1 µM) was -0.1396 ± 5.20E-04, the “k1 (rate constant, Phase I)” value (PRMT1 [3]; [H4R3Me2a] 1 µM) was 0.0355 ± 2.01E-04 s^-1 and the “k2 (rate constant, Phase II)” value (PRMT1 [3]; [H4R3Me2a] 1 µM) was 0.001394 ± 1.31E-05 s^-1. For the same substance, the “-b·k2 (slope of Phase II)” value (PRMT1 [3]; [H4R3Me2a] 2 µM) was 0.000103 ± 2.25e-06 s⁻¹, the “a (amplitude, Phase I)” value (PRMT1 [3]; [H4R3Me2a] 2 µM) was 0.0723 ± 3.03E-04 and the “a·k1 (slope of Phase I)” value (PRMT1 [3]; [H4R3Me2a] 2 µM) was 0.00179 ± 1.72e-05 s⁻¹. The “b (amplitude, Phase II)” value (PRMT1 [3]; [H4R3Me2a] 2 µM) was -0.07524 ± 5.65E-04, the “k1 (rate constant, Phase I)” value (PRMT1 [3]; [H4R3Me2a] 2 µM) was 0.02475 ± 2.15E-04 s^-1 and the “k2 (rate constant, Phase II)” value (PRMT1 [3]; [H4R3Me2a] 2 µM) was 0.001365 ± 2.82E-05 s^-1.

For “acetyl-SGRmeGKGGKGK(FL)GKGGAKRHRK [H4FLme1]”, the koff (PRMT1 [1]) is given as 292 s⁻¹ and the kon (PRMT1 [1]) is given as 2.3e+07 M⁻¹ s⁻¹.

Source: publication PMC5843908, “Detection of PRMT1 inhibitors with stopped flow fluorescence” (Signal Transduction and Targeted Therapy, 2018)
